Source: US9173823B2, “Preparation for sun protection” (INSTITUT BIOPHYTIS SAS, priority 2009, dated 2015)

How the values were obtained:
SOS system = details: in the presence of norbixin; cited from earlier work
human skin explants = assay: Sunburn cell (SBC) count in UV-irradiated human skin explants; format: cell-based; details: for reduction of the number of SBC in the epidermis compared to the untreated and irradiated skin: 7 days of treatment, UV irradiation; for reduction of the number of SBC in the epidermis compared to the untreated and irradiated skin / Number of SBC per cm, Irradiated, Average: P1 330 ng·mL-1, P2 and P3 15.5 ng·mL-1; for Number of SBC per cm, Irradiated, Average: UVB 0.30 J/cm^2 and UVA 9 J/cm^2 on day 7, collection 24 hours after irradiation; for Number of SBC per cm, Unirradiated, Mean: unirradiated explants, day 8, P1 330 ng·mL-1, P2 and P3 15.5 ng·mL-1 in medium from day 0
Protocol: 3. Experimental Study of the Effect of a Bixin-Enriched Urucum Extract, of Bixin and of Norbixin (FIG. 1). Following treatment and UV-B irradiation of human skin explants, a Masson trichrome staining allows the visualization and counting of SBC. 3.1 Tested Products: • P1: urucum organic extract titrated at 6% bixin (330 ng·mL-1) • P2: pure bixin (15.5 ng·mL-1) • P3: pure norbixin (15.5 ng·mL-1) 27 explants (3 per condition) with a diameter of 10 mm were prepared from an abdominoplasty. The explants were cultured at 37° C. in a humid atmosphere containing 5% CO2. These explants were divided into nine (9) batches as follows: Urucum extract was dissolved in DMSO. The three products were added to the medium on the first day (D0), in order to achieve the desired final concentrations. The final amount of DMSO in the medium still remained below 1%. The explants of the control batch received no treatment. On day 7, the explants were exposed to UVB at a dose of 0.30 J/cm^2 and UVA at a dose of 9 J/cm^2. Non-irradiated batches were placed in the dark during the whole irradiation time. Immediately after irradiation, the explants were put back into culture medium. At day 8, i.e. 24 hours after irradiation, the three explants from each batch were taken and processed in the same way. After 48 hours of fixation in Bouin's fixative, samples were dried and impregnated in paraffin using a Leica 1020 automated dehydration controller. Microscopic observations were made by optical microscopy using a Leica DMLB model, with the ×40 lens. Observation of the morphology was performed on paraffin sections after staining with Goldner's variant of Masson's trichrome. Sunburn cells (SBC) were counted throughout each epidermis. The length of each epidermis was measured using the measurement module of the Leica IM1000 and the number of SBC per cm of skin was then calculated.

E. coli = details: UV-radiation in the presence of H2O2 or superoxide anion; cited from earlier work
[1] = bixin in an extract standardized at 92% bixin; norbixin for an extract standardized at 91% of norbixin; cited from earlier work
plasmid DNA = details: norbixin 10 μM, 10 μM H2O2, Sn^2+ or Fe^2+ ions; cited from earlier work
[2] = after ingestion of an oily annatto solution containing 16 mg bixin, cited from earlier work; for time for which the plasma concentration was observed: norbixin above 25 ng·mL^−1, bixin at 10 ng·mL^−1
Salmonella typhimurium = details: cited from earlier work
chromosomal damage = details: mice, oral, 200 mg per kilogram of body weight before γ-irradiation (1.5-3.0 Gy); cited from earlier work
[3] = cell-free, xanthine/xanthine oxidase system; cited from earlier work
[4] = orally administered prior to chemotherapy; cited from earlier work
[5] = single dose of 120 mg or daily dose of 90 mg over 23 days; cited from earlier work

## CC(/C=C/C=C(C)/C=C/C(=O)O)=C\C=C\C=C(C)\C=C\C=C(C)\C=C\C(=O)O (stereo in doubt) [P3, norbixin]
SOS system
  reduction of the UV-C induced SOS system: 2.3 times
Human skin explants
  reduction of the number of SBC in the epidermis compared to the untreated and irradiated skin: 84.4%
  Number of SBC per cm, Irradiated, Average: 25.5 per cm
  Number of SBC per cm, Unirradiated, Mean: 0.3 per cm
E. coli
  increase of survival of bacteria (factor): 10
[1]
  daily acceptable dose (JECFA): 0.6 mg/kg
Plasmid DNA
  protection of plasmid DNA against breaks: protect plasmid DNA
[2]
  plasma concentration: higher than 25 ng·mL^−1
  time for which the plasma concentration was observed: more than 6 hours
Salmonella typhimurium
  reduction of the mutagenic effect of H2O2: 87%

## COC(=O)/C=C/C(C)=C\C=C\C(C)=C\C=C\C=C(C)\C=C\C=C(C)\C=C\C(=O)O [P2, bixin]
Chromosomal damage
  chromosomal damage, micronucleus test: reduced the occurrence of chromosomal damage
[3]
  superoxide scavenging ability, decreasing order: canthaxanthin>bixin>lutein>β-carotene
Human skin explants
  reduction of the number of SBC in the epidermis compared to the untreated and irradiated skin: 74.4%
  Number of SBC per cm, Irradiated, Average: 41.9 per cm
  Number of SBC per cm, Unirradiated, Mean: 0.3 per cm
[1]
  daily acceptable dose (JECFA): 12 mg/kg
[2]
  plasma concentration: 10 ng/mL
  time for which the plasma concentration was observed: less than 4 hours
[4]
  effect on side-effects of chemotherapy: reduce the side-effects of chemotherapy

## CC1=C(/C=C/C(C)=C/C=C/C(C)=C/C=C/C=C(C)/C=C/C=C(C)/C=C/C2=C(C)C(=O)CCC2(C)C)C(C)(C)CCC1=O [canthaxanthin]
[3]
  superoxide scavenging ability, decreasing order: canthaxanthin>bixin>lutein>β-carotene

## CC1=C[C@H](O)CC(C)(C)[C@H]1/C=C/C(C)=C/C=C/C(C)=C/C=C/C=C(C)/C=C/C=C(C)/C=C/C1=C(C)C[C@@H](O)CC1(C)C [lutein]
[3]
  superoxide scavenging ability, decreasing order: canthaxanthin>bixin>lutein>β-carotene

## CC1=C(/C=C/C(C)=C/C=C/C(C)=C/C=C/C=C(C)/C=C/C=C(C)/C=C/C2=C(C)CCCC2(C)C)C(C)(C)CCC1 [β-carotene]
[3]
  superoxide scavenging ability, decreasing order: canthaxanthin>bixin>lutein>β-carotene
[5]
  protective effect against sun: ineffective
